This passage reports IC50 results from patent publication US10611731B2, “5-methyl-6-phenyl-4,5-dihydro-2H-pyridazin-3-one derivative” (OTSUKA PHARMACEUTICAL CO., LTD., priority 2016, dated 2020).

The subject of the assay is human childhood brain tumor cell lines (PFSK-1). Nature of the assay: Growth inhibitory activity against PFSK-1 cells (WST-8, Cell Counting Kit-8). It counts as cell-based. To be noted: Homo sapiens, 72 h, 3 days incubation with test compound, WST-8 OD 450/630 nm, read-out: IC50 (concentration inhibiting 50% of the cell growth). Here is the method: The growth inhibitory activity against human childhood brain tumor cell lines (PFSK-1) was measured with WST-8 reagent [2-(2-methoxy-4-nitrophenyl)-3-(4-nitrophenyl)-5-(2,4-disulfophenyl)-2H-tetrazolium monosodium salt, Cell Counting Kit-8™], according to the method described in Tominaga, H. et al., Anal. Commun., 1999, 36, 47-50. Briefly, PFSK-1 was seeded in 96-well microplate at 100 μL/well with Roswell Park Memorial Institute (RPMI) 1640 medium containing 10% fetal bovine serum (FBS), and the cells were incubated in the presence of 5% carbon dioxide (CO2) at 37° C. for 24 hours. 50 μL of each test compound diluted with the medium was added to each well, and then the cells were incubated further for 3 days. After the incubation, 15 μL of Cell Counting Kit-8™ was added to each well, and the cells were incubated for one and half hours. Then, optical density (OD) values at measurement wavelength 450 nm and reference wavelength 630 nm were measured and the difference thereof was calculated. From the calculated difference, the OD value difference (at measurement wavelength 450 nm and reference wavelength 630 nm) of the control well which includes no cell was subtracted to afford cell-growth activity in each well.
The cell growth inhibitory activity of each test compound was calculated by comparing the cell-growth activity with each test compound to the cell-growth activity without any test compound (control), and each IC50 (nM) which is the concentration inhibiting 50% of the cell growth was calculated.
Take `Cc1cc(C2=NNC(=O)CC2C)cc(C)c1OCC1(O)CC1` (centres unmarked) [Example 43, 6-{4-[(1-Hydroxycyclopropyl)methoxy]-3,5-dimethylphenyl}-5-methyl-4,5-dihydro-2H-pyridazin-3-one]: the IC50 turned out to be 4.3 nM.

In the case of `Cc1cc(C2=NNC(=O)CC2C)cc(Cl)c1OCC1(O)CC1` (centres unmarked) [Example 44, 6-{3-chloro-4-[(1-hydroxycyclopropyl)methoxy]-5-methylphenyl}-5-methyl-4,5-dihydro-2H-pyridazin-3-one], the IC50 came out at 1 nM.

In the case of `Cc1cc(C2=NNC(=O)CC2C)cc(F)c1OCC1(O)CC1` (centres unmarked) [Example 45, 6-{3-Fluoro-4-[(1-hydroxycyclopropyl)methoxy]-5-methylphenyl}-5-methyl-4,5-dihydro-2H-pyridazin-3-one], the IC50 is 7.2 nM.

As to `Cc1c(OCC2(O)CC2)ccc(C2=NNC(=O)CC2C)c1F` (centres unmarked) [Example 46, 6-{2-Fluoro-4-[(1-hydroxycyclopropyl)methoxy]-3-methylphenyl}-5-methyl-4,5-dihydro-2H-pyridazin-3-one], the IC50 stood at 3.9 nM.

In the case of `CC1CC(=O)NN=C1c1ccc(OCC2(O)CC2)c(Cl)c1F` (centres unmarked) [Example 47, 6-{3-chloro-2-fluoro-4-[(1-hydroxycyclopropyl)methoxy]phenyl}-5-methyl-4,5-dihydro-2H-pyridazin-3-one], the IC50 came to 2.4 nM.

For the molecule `CC(O)COc1ccc(C2=NNC(=O)CC2C)c(F)c1Br` (centres unmarked) [Example 48, 6-[3-bromo-2-fluoro-4-(2-hydroxypropoxy)phenyl]-5-methyl-4,5-dihydro-2H-pyridazin-3-one], the IC50 came out at 0.9 nM.

With `CC(O)COc1ccc(C2=NNC(=O)CC2C)c(F)c1F` (centres unmarked) [Example 49, 6-[2,3-Difluoro-4-(2-hydroxypropoxy)phenyl]-5-methyl-4,5-dihydro-2H-pyridazin-3-one], the IC50 was determined as 2.8 nM.

Turning to `CC(O)COc1c(F)cc(C2=NNC(=O)CC2C)cc1Br` (centres unmarked) [Example 50, 6-[3-Bromo-5-fluoro-4-(2-hydroxypropoxy)phenyl]-5-methyl-4,5-dihydro-2H-pyridazin-3-one], the IC50 is 2.9 nM.

For the molecule `Cc1cc(C2=NNC(=O)CC2C)cc(C)c1OCC(C)O` (centres unmarked) [Example 51, 6-[4-(2-Hydroxypropoxy)-3,5-dimethylphenyl]-5-methyl-4,5-dihydro-2H-pyridazin-3-one], the IC50 is 5.5 nM.

With `CC(O)COc1c(F)cc(C2=NNC(=O)CC2C)cc1Cl` (centres unmarked) [Example 52, 6-[3-Chloro-5-fluoro-4-(2-hydroxypropoxy)phenyl]-5-methyl-4,5-dihydro-2H-pyridazin-3-one], the IC50 is 3.8 nM.

For the molecule `CC(O)COc1c(Cl)cc(C2=NNC(=O)CC2C)cc1Cl` (centres unmarked) [Example 53, 6-[3,5-dichloro-4-(2-hydroxypropoxy)phenyl]-5-methyl-4,5-dihydro-2H-pyridazin-3-one], the IC50 was found to be 1.9 nM.

Turning to `CC(O)COc1ccc(C2=NNC(=O)CC2C)c(F)c1Cl` (centres unmarked) [Example 54, 6-[3-chloro-2-fluoro-4-(2-hydroxypropoxy)phenyl]-5-methyl-4,5-dihydro-2H-pyridazin-3-one], the IC50 is 0.5 nM.

`Cc1cc(C2=NNC(=O)CC2C)cc(Cl)c1OCC(C)O` (centres unmarked) [Example 55, 6-[3-chloro-4-(2-hydroxypropoxy)-5-methylphenyl]-5-methyl-4,5-dihydro-2H-pyridazin-3-one]: the IC50 was determined as 1.9 nM.

With `Cc1cc(C2=NNC(=O)CC2C)cc(F)c1OCC(C)O` (centres unmarked) [Example 56, 6-[3-Fluoro-4-(2-hydroxypropoxy)-5-methylphenyl]-5-methyl-4,5-dihydro-2H-pyridazin-3-one], the IC50 came out at 7.6 nM.

With `CC(O)COc1c(Cl)cc(C2=NNC(=O)CC2C)cc1Br` (centres unmarked) [Example 57, 6-[3-bromo-5-chloro-4-(2-hydroxypropoxy)phenyl]-5-methyl-4,5-dihydro-2H-pyridazin-3-one], the IC50 is below 1 nM.

With `Cc1c(OCC(C)O)ccc(C2=NNC(=O)CC2C)c1F` (centres unmarked) [Example 58, 6-[2-Fluoro-4-(2-hydroxypropoxy)-3-methylphenyl]-5-methyl-4,5-dihydro-2H-pyridazin-3-one], the IC50 was 2.8 nM.

Regarding `C=Cc1c(OCC(C)O)ccc(C2=NNC(=O)CC2C)c1F` (centres unmarked) [Example 59, 6-[2-fluoro-4-(2-hydroxypropoxy)-3-vinylphenyl]-5-methyl-4,5-dihydro-2H-pyridazin-3-one], the IC50 was 2.2 nM.

For `CCc1c(OCC(C)O)ccc(C2=NNC(=O)CC2C)c1F` (centres unmarked) [Example 60, 6-[3-Ethyl-2-fluoro-4-(2-hydroxypropoxy)phenyl]-5-methyl-4,5-dihydro-2H-pyridazin-3-one], the IC50 came to 4.7 nM.

For the molecule `CCC(O)COc1ccc(C2=NNC(=O)CC2C)c(F)c1F` (centres unmarked) [Example 61, 6-[2,3-Difluoro-4-(2-hydroxybutoxy)phenyl]-5-methyl-4,5-dihydro-2H-pyridazin-3-one], the IC50 turned out to be 4.7 nM.

`CCC(O)COc1c(F)cc(C2=NNC(=O)CC2C)cc1Cl` (centres unmarked) [Example 62, 6-[3-Chloro-5-fluoro-4-(2-hydroxybutoxy)phenyl]-5-methyl-4,5-dihydro-2H-pyridazin-3-one]: the IC50 was found to be 8.9 nM.

Regarding `CCC(O)COc1c(Cl)cc(C2=NNC(=O)CC2C)cc1Cl` (centres unmarked) [Example 63, 6-[3,5-Dichloro-4-(2-hydroxybutoxy)phenyl]-5-methyl-4,5-dihydro-2H-pyridazin-3-one], the IC50 was found to be 5 nM.

`CCC(O)COc1ccc(C2=NNC(=O)CC2C)c(F)c1Cl` (centres unmarked) [Example 64, 6-[3-chloro-2-fluoro-4-(2-hydroxybutoxy)phenyl]-5-methyl-4,5-dihydro-2H-pyridazin-3-one]: the IC50 came to 2.1 nM.

In the case of `CCC(O)COc1c(C)cc(C2=NNC(=O)CC2C)cc1Cl` (centres unmarked) [Example 65, 6-[3-Chloro-4-(2-hydroxybutoxy)-5-methylphenyl]-5-methyl-4,5-dihydro-2H-pyridazin-3-one], the IC50 stood at 4.3 nM.

In the case of `CCC(O)COc1c(Cl)cc(C2=NNC(=O)CC2C)cc1Br` (centres unmarked) [Example 66, 6-[3-Bromo-5-chloro-4-(2-hydroxybutoxy)phenyl]-5-methyl-4,5-dihydro-2H-pyridazin-3-one], the IC50 was 4.1 nM.

With `C=Cc1c(OCC(O)CC)ccc(C2=NNC(=O)CC2C)c1F` (centres unmarked) [Example 67, 6-[2-Fluoro-4-(2-hydroxybutoxy)-3-vinylphenyl]-5-methyl-4,5-dihydro-2H-pyridazin-3-one], the IC50 is 3.6 nM.

For the molecule `CC1CC(=O)NN=C1c1cc(F)c(OCC(C)(C)CO)c(Br)c1` (centres unmarked) [Example 69, 6-[3-bromo-5-fluoro-4-(3-hydroxy-2,2-dimethylpropoxy)phenyl]-5-methyl-4,5-dihydro-2H-pyridazin-3-one], the IC50 was 1.2 nM.

`CC1CC(=O)NN=C1c1ccc(OCC(C)(C)CO)c(Br)c1F` (centres unmarked) [Example 70, 6-[3-Bromo-2-fluoro-4-(3-hydroxy-2,2-dimethylpropoxy)phenyl]-5-methyl-4,5-dihydro-2H-pyridazin-3-one]: the IC50 was found to be 5.3 nM.

Consider `Cc1cc(C2=NNC(=O)CC2C)cc(C)c1OCC(C)(C)CO` (centres unmarked) [Example 71, 6-[4-(3-Hydroxy-2,2-dimethylpropoxy)-3,5-dimethylphenyl]-5-methyl-4,5-dihydro-2H-pyridazin-3-one], for which the IC50 was 3.9 nM.

For `Cc1cc(C2=NNC(=O)CC2C)cc(Cl)c1OCC(C)(C)CO` (centres unmarked) [Example 72, 6-[3-chloro-4-(3-hydroxy-2,2-dimethylpropoxy)-5-methylphenyl]-5-methyl-4,5-dihydro-2H-pyridazin-3-one], the IC50 is 0.9 nM.
